Key:
Actinomycetes = assay: Total actinomycetes population in soil; format: cell-based; details: no coating material; urea 100 mg N kg^−1 soil
Method: (§1) Representative soil samples were analyzed for different forms of N i.e., urea N, NH4 and NO3-N at regular intervals for two weeks to assess the nitrification inhibitory properties of the materials in question following the standard procedures (Douglas and Bremner, 1970, Soil Sci. Soc. Am. Proc. 34:859-862). Another set of experiment was conducted to assay the total bacterial population, total actinomycetes population and nitrifying bacteria viz., Nitrosomons and Nitrobacber (Alexander and Clark, 1965, In. Method of Soil Analysis Part II (CA Black Eds) Am. Soc .Agron. Inc. Wisconsin, U.S.A.; KenKnight and Torariko. 1973, Agrokhimiya 7:3)

Total bacteria = assay: Total bacterial population in soil; format: cell-based; details: no coating material; urea 100 mg N kg^−1 soil
Method: as §1

[1] = system: menthol mint (Mentha arvensis); assay: Greenhouse pot culture experiment: herb yield, N accumulation, apparent N recovery; format: in vivo; details: urea N 100 mg kg^−1, coating materials added at 1.00% w/w (Nil for urea alone)
Method: To confirm the results of the incubation a pot culture experiment was conducted subsequently taking menthol mint (Mentha arvensis) as the test crops. Eight kg soil (<2 mm) were put in plastic container. The same fertilizers coating treatments as were in incubation experiment were imposed in this experiment, except that instead of two levels of coating materials, these were applied at 1.00% on v/w basis. The experiment was laid in a completely randomized design with four replications. The soils were analyzed for mineral forms of N at regular intervals. In addition, the plant samples were analyzed for N accumulation and apparent N recovery. [formula]

Nitrosomonus = Nitrosomonus population in soil; format: cell-based; details: no coating material; urea 100 mg N kg^−1 soil
Method: as §1

Nitrobacter = Nitrobacter population in soil; format: cell-based; details: no coating material; urea 100 mg N kg^−1 soil
Method: as §1

urease = details: no coating material; urea 100 mg N kg^−1 soil; 24 hours of incubation

NC(N)=O [Urea alone, Urea]
Actinomycetes (Actinomycetes): 5.66 × 104, g^−1 soil | Total bacteria (Total bacteria): 4.00 × 105, g^−1 soil | Apparent recovery (apparent N recovery) [1]: 29.1% | Herb yield [1]: 42.8 g pot^−1 | N accumulation [1]: 450 mg pot^−1 | Apparent recovery (apparent N recovery) ([1]; listed as urea alone): 29% | Nitrosomonus (Nitrosomonus): 3.30 × 103, g^−1 soil | Nitrobacter (Nitrobacter): 14.00 × 103, g^−1 soil | Urease activity (urease): 66.5 μg NH4—N liberated/g soil/hour

— US6336949B1, “Slow release urea fertilizer composition and a process for the preparation of the said composition” (Council of Scientific & Industrial Research, priority 1999, dated 2002)
